Laboratory results as given in patent US20240254134A1, “AGELASTATIN A DERIVATIVES AND RELATED METHODS” (ROMO, Daniel, priority 2021, published 2024).
Where two headings read alike, the source gives them in different places. Blank lines part the entries; values can stand above or below the compound they belong to.

Tests used:
[1] = Stability of 7-hydroxy AglA derivatives (1H NMR); format: physicochemical
HeLa cells = details: cited from earlier work
[2] = Cancer cell line cytotoxicity assay (MTS or resazurin, 72 h); format: cell-based; details: human
Procedure: (§1) Cancer Cell Line Cytotoxicity Assays Cancer cell lines (MDA-MB-231, MCF7, Caco2, or U87) were plated on 96-well plates at 2,000 cells per well and incubated for 24 h at 37° C., 5% CO2. AglA and derivatives were dissolved in DMSO, diluted to the appropriate concentrations, and the compound solutions or equivalent concentration of solvent (vehicle) were added to the plate and incubated for 72 h at 37° C., 5% CO2. Following the manufacturer protocol, 20 μL of CellTiter 96® AQueous One Solution Cell Proliferation Assay (MTS, Promega), or CellTiter-Blue@ Cell Viability Assay (resazurin, Promega) was added. The plate was allowed to develop for 1-4 h at 37° C., 5% CO2 and evaluated at 490 nm on an AccuSkan Go (Fisher Scientific) or at 560 nm excitation and 590 nm emission on a VarioSkan Lux Multimode Microplate Reader (Fisher Scientific).

[3] = Stability studies of pyrrole-derived carbinolamines 18a-18c (1H NMR); format: physicochemical; details: in CD3OD
Procedure: We synthesized pyrrole carboxylic amides 17a-c to study the equilibrium between the corresponding carbinolamines and pyrrolo ketones (FIG. 5). Reduction of 2-azidocyclopentanone and condensation with pyrrole-1H-carboxylic acid gave amide 17b. Upon treatment of ketone 17b with Et3N, cyclization gave the corresponding carbinolamine 18b in 73% yield (>19:1 dr, 600 MHz ^1H NMR). […] When resubjected to NEt3/CH2Cl2 at ambient temperature (22° C.) for 16 h, only a small amount of the ring-opened keto pyrrole 17b was generated leading to an equilibrium ratio of 11:1 (18b/17b) favoring the cyclized form as judged by ^1H NMR. […] In contrast, the 5-bromo pyrrole analog 17a, that most closely mimics the targeted 7-hydroxy AglA, disfavored the closed form 18a.
To a stirred solution of carbinolamine 18b (3.0 mg, 0.016 mmol, 1.0 equiv) in dichloromethane (0.32 mL) was added triethylamine (6.6 μl, 0.047 mmol, 3.0 equiv).
To a stirred solution of carbinolamine 18c (1.2 mg, 0.0044 mmol, 1.0 equiv) was added a solution of triethylamine in dichloromethane (0.1 mL, the solution was made by mixing 19 μl triethylamine and 1.0 mL dichloromethane).
To a 1.0 dram vial was charged 17a (2.7 mg, 0.01 mmol, 1.0 equiv) and a solution of triethylamine in dichloromethane (0.23 mL, […], 3.0 equiv. The solution was made by mixing 19 μl triethylamine and 1.0 mL dichloromethane).
In a 1.5 dram vial, carbinolamine 18b (2.6 mg, 0.014 mmol, 1.0 equiv) was dissolved in THF (0.14 mL) and MeOH (0.14 mL) and the mixture was cooled to 0° C. N-bromosuccinamide (2.5 mg, 0.0142 mmol, 1.05 equiv) was added and the reaction was allowed to warm up to ambient temperature (22° C.). After stirring for 4 h, TLC indicated there was no more starting material and the reaction mixture was concentrated and purified by column chromatography on silica (MeOH/CH2Cl2, 0 to 20%) to give a mixture of 18a/18c/17a (2.4 mg, 65%) in 1:0.6:0.44 ratio. This mixture was monitored by NMR to probe the stability of the 5-bromo derivative in CD3OD. […]

U87 = assay: Cancer cell line cytotoxicity assay (MTS or resazurin, 72 h); format: cell-based; details: glioblastoma cell line U87, 72 h incubation
Procedure: as §1

Caco2 = assay: as above; format: cell-based; details: Caco2, 72 h incubation
Procedure: as §1

MDA-MB-231 = assay: as above; format: cell-based; details: MDA-MB-231, 72 h incubation
Procedure: as §1

MCF7 = assay: as above; format: cell-based; details: MCF7, 72 h incubation
Procedure: as §1

[4] = test system: Cancer cell lines (MDA-MB-231, MCF7, Caco2, or U87); assay: Cancer cell line cytotoxicity, span over all cell lines studied; format: cell-based; details: Homo sapiens; all cell lines studied except Caco-2; read-out: activity against all cell lines studied (span of values)
Procedure: as §1

[5] = target: osteopontin (OPN, encoded by SPP1) (Homo sapiens, UniProt P10451); details: cited from earlier work
[6] = test system: glycogen synthase kinase-3β; details: cited from earlier work
[7] = test system: peptidyl transfer center (PTC) of the ribosome; details: HeLa cells; cited from earlier work

Chain of glycogen synthase kinase-3β (P49841 whole entry): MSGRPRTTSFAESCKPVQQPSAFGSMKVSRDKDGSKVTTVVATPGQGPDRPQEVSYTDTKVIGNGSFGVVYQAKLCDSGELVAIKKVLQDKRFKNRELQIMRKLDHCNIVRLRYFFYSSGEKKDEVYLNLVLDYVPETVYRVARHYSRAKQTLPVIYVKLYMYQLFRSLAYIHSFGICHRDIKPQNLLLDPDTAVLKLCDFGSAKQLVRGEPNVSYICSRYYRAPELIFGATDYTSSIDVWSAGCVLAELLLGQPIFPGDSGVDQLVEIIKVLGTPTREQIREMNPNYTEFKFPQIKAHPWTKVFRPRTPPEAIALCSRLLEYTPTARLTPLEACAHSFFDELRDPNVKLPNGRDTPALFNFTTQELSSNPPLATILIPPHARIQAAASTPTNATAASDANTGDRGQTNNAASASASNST
Chain of osteopontin (OPN, encoded by SPP1) (P10451 17-314, species assumed): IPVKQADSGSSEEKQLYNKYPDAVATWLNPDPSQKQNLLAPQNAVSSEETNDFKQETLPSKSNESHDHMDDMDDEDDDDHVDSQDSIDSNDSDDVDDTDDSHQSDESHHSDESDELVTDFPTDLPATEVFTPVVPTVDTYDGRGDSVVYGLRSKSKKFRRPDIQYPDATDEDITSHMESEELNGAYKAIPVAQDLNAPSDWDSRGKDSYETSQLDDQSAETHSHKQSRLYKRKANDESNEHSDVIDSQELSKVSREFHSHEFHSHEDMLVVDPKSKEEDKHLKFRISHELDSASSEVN

stability (ring-closed carbinolamine vs ring opened ketopyrrole tautomer) [1]: instability | stability (ring-closed carbinolamine vs ring opened ketopyrrole tautomer) ([1]; listed as 7-hydroxy AglA): unstable
Compound: 7-hydroxy AglA [7-OH AglA]

Compound: 13-des-bromo AglA
drop in potency compared to AglA (HeLa cells): ~500 X

stability by 1H NMR ([1]; stored in CD3OD or DMSO-d6 at ambient temperature (22° C.) for 7 days): quite stable
Compound: CN1C(=O)N[C@H]2[C@@H]3NC(=O)c4cccn4[C@]3(O)C[C@]21O (racemic) [compound 24, 7-hydroxy-13-des-bromo AglA]
EC50 at 72 h ([2]; Caco2 cells, Caco2, 72 h incubation): > 250 µM | EC50 at 72 h ([2]; MCF7 cells, MCF7, 72 h incubation): > 250 µM | EC50 at 72 h ([2]; MDA-MB-231 cells, MDA-MB-231, 72 h incubation): > 250 µM | EC50 at 72 h ([2]; U87 glioblastoma cells, glioblastoma cell line U87, 72 h incubation): 171 ± 8 µM

stability of carbinolamine under neutral conditions [3]: opened rapidly in CD3OD
Compound: O=C1NC2CCCC2(O)n2c(Br)ccc21 (stereo not shown) [18a]

stability of carbinolamine under neutral conditions [3]: stable in CD3OD for several days
Compound: O=C1NC2CCCC2(O)n2cccc21 (stereo not shown) [18b]

stability of carbinolamine under neutral conditions [3]: stable under neutral conditions
Compound: O=C1NC2CCCC2(O)n2cc(Br)cc21 (stereo not shown) [18c]

Compound: CO[C@@]12C[C@H]3OC(c4ccc(Br)[nH]4)=N[C@H]3[C@@H]1NC(=O)N2C [26a]
cytotoxicity EC50 (U87): no activity | cytotoxicity EC50 (Caco2): no activity | cytotoxicity EC50 (MDA-MB-231): no activity | cytotoxicity EC50 (MCF7): no activity

Compound: CN1C(=O)N[C@H]2[C@@H]3NC(=O)c4ccc([N+](=O)[O-])n4[C@@H]3C[C@]21O [compound 37, 13-nitro AglA]
EC50 [4]: 1.16 to 35.4 µM

Compound: Agelastatin A [AglA]
inhibition of osteopontin [5]: inhibition of osteopontin | inhibition of expression of glycogen synthase kinase-3β [6]: inhibits the expression | binding to the peptidyl transfer center of the ribosome [7]: binds to the peptidyl transfer center (PTC) of the ribosome
